Data published in US11419856B2, “Pharmaceutical combinations for use in the treatment of neoplastic diseases” (Basilea Pharmaceutica International AG, priority 2017, dated 2022).

Columns and labels:
[1] = test system: MDA-MB-231 xenograft (human triple negative breast cancer); assay: Antitumor efficacy and induction of cures in the MDA-MB-231 xenograft model (Examples 1A, 1B); type: in vivo, mouse
Experimental: (§1) Female athymic nude mice (Crl:NU(NCr)-Foxnlnu, Charles River) were used when ten weeks old with a body weight (BW) range of 19.7-27.1 g on Day 1 of the study. The animals were fed ad libitum water (reverse osmosis, 1 ppm Cl) and NIH 31 Modified and Irradiated Lab Diet® consisting of 18.0% crude protein, 5.0% crude fat, and 5.0% crude fiber. The mice were housed on irradiated Enrich-o'Cobs™ Laboratory Animal Bedding in static micro-isolators on a 12-hour light cycle at 20-22° C. (68-72° F.) and 40-60% humidity. Charles River Discovery Services North Carolina (CR Discovery Services) specifically complies with the recommendations of the Guide for Care and Use of Laboratory Animals with respect to restraint, husbandry, surgical procedures, feed and fluid regulation, and veterinary care. The animal care and use program at CR Discovery Services is accredited by the Association for Assessment and Accreditation of Laboratory Animal Care International (AAALAC), which assures compliance with accepted standards for the care and use of laboratory animals. These considerations were taken into account in the way that the dosage regimes were designed and implemented.
The human MDA-MB-231 breast adenocarcinoma cells were grown to mid-log phase in RPMI-1640 medium containing 10% fetal bovine serum, 2 mM glutamine, 100 units/mL sodium penicillin G, 25 μg/mL gentamicin, and 100 μg/mL streptomycin sulfate. The tumor cells were cultured in tissue culture flasks in a humidified incubator at 37° C./5% CO2 and 95% air, harvested during exponential growth and resuspended in cold Phosphate-buffered saline (PBS). Each test animal received a subcutaneous (s.c.) injection of 5×10^6 MDA-MB-231 cells (0.1 mL cell suspension) into the right flank, and tumor growth was monitored as the average tumor size approached the target range of 100-150 mm^3. Tumors were measured (mm) in two dimensions using calipers, and volume was calculated using the formula: Tumor Volume (TV) (mm^3)=(width^2×length)/2. Eighteen days after tumor cell implantation, on Day 1 of the study, mice with individual tumor volumes ranging from 75 to 172 mm^3 were randomized into groups of 8-10 animals, with group mean tumor volumes of 114-124 mm^3.
BAL0101553 was dissolved in 0.9% NaCl in water buffered to pH 5 with 1% sodium acetate to yield 2, 2.5 and 3 mg/mL dosing solutions, providing 20, 25 and 30 mg/kg dosages, respectively, in 10 mL/kg dosing volumes. Eribulin (purchased from Eisai Co., Lot. No. 6217, 6288, 6289 and 6309) at 0.5 mg/mL concentration was diluted in saline to yield a 0.01, 0.025 and 0.05 mg/mL dosing solutions, providing 0.1, 0.25 and 0.5 mg/kg dosages, respectively, in a dosing volume of 10 mL/kg.
(§2) Groups of mice (n=8-10) bearing MDA-MB-231 tumors were dosed as outlined in the Tables 1 and 3. All doses were adjusted to 10 mL/kg. The control groups received oral doses of vehicle (pH 5 buffered 0.9% NaCl solution). Eribulin was administered i.v. and BAL101553 orally. When eribulin and BAL0101553 were dosed in combination, Eribulin was administered to all groups first followed by BAL0101553 dosing within 30 minutes of the first regimen.
Body weights were recorded daily for days 1-5 and then twice weekly until the end of the study and tumor volumes were recorded twice weekly until the end of the experiment. These parameters were analyzed and graphically represented by using GraphPad-Prism™ 5 for Windows according to standard procedure. […] Tumor free animals at the end of the study time were assessed for residual MDA-MB-231 tumor cells by pathological methods. Skin and subcutaneous tissue including the tumor cell inoculation site from the flank region were resected, preserved in formalin and embedded in paraffin.

[2] = Tolerability in the MDA-MB-231 xenograft model (body weight, mortalities); settings: for Final body-weight / Body-weight change: mean ± SD
Experimental: as §1, with “The” for “Female athymic nude mice (Crl:NU(NCr)-Foxnlnu, Charles River) were used when ten weeks old with a body weight (BW) range of 19.7-27.1 g on Day 1 of the study. The animals were fed ad libitum water (reverse osmosis, 1 ppm Cl) and NIH 31 Modified and Irradiated Lab Diet® consisting of 18.0% crude protein, 5.0% crude fat, and 5.0% crude fiber. The”
as §2, with “All” for “Groups of mice (n=8-10) bearing MDA-MB-231 tumors were dosed as outlined in the Tables 1 and 3. All”
Body weights were recorded daily for days 1-5 and then twice weekly until the end of the study and tumor volumes were recorded twice weekly until the end of the experiment. These parameters were analyzed and graphically represented by using GraphPad-Prism™ 5 for Windows according to standard procedure. […] Skin and subcutaneous tissue including the tumor cell inoculation site from the flank region were resected, preserved in formalin and embedded in paraffin. Sections of approximately 5 μm were mounted on glass slides and stained with hematoxylin/eosin and were evaluated by a trained pathologist, to identify residual tumor cells at the site of injection, and were being reported as positive for the existence of residual tumor cells or as negative for a complete lack of any evidence of residual tumor cells.

[3] = Day 26, Eribulin i.v. 0.1 mg/kg q2d D1-D21, 0.1 mg/kg q2d D25-D43
[4] = Day 26, Eribulin i.v. 0.25 mg/kg q2d D1-D21, 0.25 mg/kg q2d D25-D43
[5] = Day 26, Eribulin i.v. 0.5 mg/kg q2d D1-D21, 0.5 mg/kg q2d D25-D43
[6] = Day 100 (endpoint), Eribulin i.v. 0.1 mg/kg q2d D1-D21, 0.1 mg/kg q2d D25-D43
[7] = Day 100 (endpoint), Eribulin i.v. 0.25 mg/kg q2d D1-D21, 0.25 mg/kg q2d D25-D43
[8] = Day 100 (endpoint), Eribulin i.v. 0.5 mg/kg q2d D1-D21, 0.5 mg/kg q2d D25-D43
[9] = E1A, Day 25, i.v. 0-1 mg/kg q2d D1-D9, 0.1 mg/kg q2d D12-D34
[10] = E1A, Day 25, i.v. 0.5 mg/kg q2d D1-D9, 0.5 mg/kg q2d D12-D34
[11] = E1A, Day 85 (endpoint), i.v. 0-1 mg/kg q2d D1-D9, 0.1 mg/kg q2d D12-D34
[12] = E1A, Day 85 (endpoint), i.v. 0.5 mg/kg q2d D1-D9, 0.5 mg/kg q2d D12-D34
[13] = E1A, Day 25, i.v. 0.1 mg/kg q2d D1-D9, 0.1 mg/kg q2d D12-D34
[14] = E1B, Day 26, i.v. 0.1 mg/kg q2d D1-D21, 0.1 mg/kg q2d D25-D43
[15] = E1B, Day 26, i.v. 0.25 mg/kg q2d D1-D21, 0.25 mg/kg q2d D25-D43
[16] = E1B, Day 26, i.v. 0.5 mg/kg q2d D1-D21, 0.5 mg/kg q2d D25-D43

Q: With `C=C1C[C@@H]2CC[C@@]34C[C@H]5O[C@H]6[C@@H](O3)[C@H]3O[C@H](CC[C@@H]3O[C@H]6[C@H]5O4)CC(=O)C[C@@H]3[C@@H](OC)[C@@H](C[C@H](O)CN)O[C@H]3C[C@H]3O[C@@H](CC[C@@H]1O2)C[C@@H](C)C3=C.CS(=O)(=O)O` [Eribulin, (2R, 3R, 3aS, 7R, 8aS, 9S, 10aR, 11S, 12R, 13aR, 13bS, 15S, 18S, 21S, 24S, 26R, 28R, 29aS)-2-[(2S)-3-Amino-2-hydroxypropyl]-3-methoxy-26-methyl-20,27-dimethylidenehexacosahydro-11,15:18,21:24,28-triepoxy-7,9-ethano-12,15-methano-9H,15H-furo[3,2-i]furo[2′,3′:5,6]pyrano[4,3-b][1,4]dioxacyclopentacosin-5(4H)-one methanesulfonate (salt)] as the compound, how does the “# of regressed tumors (total)” value [1, 3] read?
A: 2 (10)

Q: What about the T/C [1, 3] of the same compound?
A: 0.12

Q: What about the “# of regressed tumors (total)” value [1, 4] of the same compound?
A: 8 (10)

Q: What about the T/C [1, 4] of the same compound?
A: −0.05

Q: What about the “# of regressed tumors (total)” value [1, 5] of the same compound?
A: 10 (10)

Q: What about the T/C [1, 5] of the same compound?
A: −0.09

Q: And the “# of confirmed cures (total)” value [1, 6]?
A: 0 (10)

Q: What about the “# of tumors with TV ≤ 4 mm^3 (total)” value [1, 6] of the same compound?
A: 0 (10)

Q: And the “% cures” value [1, 6]?
A: 0%

Q: What about the “# of confirmed cures (total)” value [1, 7] of the same compound?
A: 1 (9)

Q: What about the “# of tumors with TV ≤ 4 mm^3 (total)” value [1, 7] of the same compound?
A: 1 (10)

Q: And the “% cures” value [1, 7]?
A: 11%

Q: And the “# of confirmed cures (total)” value [1, 8]?
A: 6 (10)

Q: What about the “# of tumors with TV ≤ 4 mm^3 (total)” value [1, 8] of the same compound?
A: 2 (10)

Q: And the “% cures” value [1, 8]?
A: 60%

Q: And the “# of regressed tumors (total)” value [1, 9]?
A: 1 (8)

Q: And the T/C [1, 9]?
A: 0.13

Q: What about the “# of regressed tumors (total)” value [1, 10] of the same compound?
A: 8 (8)

Q: And the T/C [1, 10]?
A: −0.09

Q: And the “# of confirmed cures (total)” value [1, 11]?
A: 0 (8)

Q: And the “# of tumors with TV ≤ 4 mm^3 (total)” value [1, 11]?
A: 0 (8)

Q: And the “% cures” value [1, 11]?
A: 0%

Q: And the “# of confirmed cures (total)” value [1, 12]?
A: 1 (8)

Q: And the “# of tumors with TV ≤ 4 mm^3 (total)” value [1, 12]?
A: 3 (8)

Q: And the “% cures” value [1, 12]?
A: 12.5%

Q: And the “T/C (TC-BW, body weight)” value [2, 13]?
A: 1.00

Q: What about the “T/C (TC-BW, body weight)” value [2, 10] of the same compound?
A: 0.96

Q: What about the “Final body-weight” value [2, 13] of the same compound?
A: 25.8 ± 3.0 g

Q: What about the “Final body-weight” value [2, 10] of the same compound?
A: 24.4 ± 1.9 g

Q: And the “Body-weight change” value ([2]; E1A, day-0 until day-25, i.v. 0.1 mg/kg q2d D1-D9, 0.1 mg/kg q2d D12-D34)?
A: 2.1 ± 1.0 g

Q: And the Mortalities ([2]; E1A, i.v. 0.1 mg/kg q2d D1-D9, 0.1 mg/kg q2d D12-D34)?
A: 0/8

Q: What about the Mortalities ([2]; E1A, i.v. 0.5 mg/kg q2d D1-D9, 0.5 mg/kg q2d D12-D34) of the same compound?
A: 0/8

Q: What about the “T/C (TC-BW, body weight)” value [2, 14] of the same compound?
A: 1.09

Q: And the “T/C (TC-BW, body weight)” value [2, 15]?
A: 1.02

Q: And the “T/C (TC-BW, body weight)” value [2, 16]?
A: 1.03

Q: What about the “Final body-weight” value [2, 14] of the same compound?
A: 27.9 ± 2.7 g

Q: What about the “Final body-weight” value [2, 15] of the same compound?
A: 26.6 ± 1.7 g

Q: And the “Final body-weight” value [2, 16]?
A: 25.5 ± 1.5 g

Q: And the “Body-weight change” value ([2]; E1B, day-0 until day-26, i.v. 0.1 mg/kg q2d D1-D21, 0.1 mg/kg q2d D25-D43)?
A: 3.9 ± 1.1 g

Q: And the “Body-weight change” value ([2]; E1B, day-0 until day-26, i.v. 0.25 mg/kg q2d D1-D21, 0.25 mg/kg q2d D25-D43)?
A: 2.3 ± 1.0 g

Q: And the “Body-weight change” value ([2]; E1B, day-0 until day-26, i.v. 0.5 mg/kg q2d D1-D21, 0.5 mg/kg q2d D25-D43)?
A: 2.3 ± 0.9 g

Q: And the Mortalities ([2]; E1B, i.v. 0.1 mg/kg q2d D1-D21, 0.1 mg/kg q2d D25-D43)?
A: 0/10

Q: And the Mortalities ([2]; E1B, i.v. 0.25 mg/kg q2d D1-D21, 0.25 mg/kg q2d D25-D43, a non-treatment related death footnoted)?
A: 0/10^+

Q: What about the Mortalities ([2]; E1B, i.v. 0.5 mg/kg q2d D1-D21, 0.5 mg/kg q2d D25-D43) of the same compound?
A: 0/10
